Read-outs that look alike come from different tables or passages of the source.
Legend:
[1] = pharmacokinetic evaluation in mice (oral and IV), blood levels by LC-MS/MS; format: in vivo, C57/BL6 mice; settings: for Blood CL total / Vd / Vss / AUC 0 - ∞ / Apparent t 1/2 / T max / Bioavailability / Cmax: male C57/BL6 mice; for AUC 0 - ∞ / Apparent t 1/2 / Cmax: blood; for Apparent t 1/2: mean of 5; for half-life: male, C57/BL6, mouse, whole blood, mice, read-out: apparent half-life, range
Description: Snapshot pharmacokinetic evaluations were performed on a number of analogues from the TK-series anti-malarial compounds. […] The test compound dissolved in a 20 mM Sodium acetate buffer (pH 4.0): Ethanol: PEG400 (70:5:25; v/v/) drug vehicle was administered orally to healthy C57/BL6 mice (n = 5) at doses of 40 and 20 mg/kg, and intravenously at doses of 5 and 2.5 mg/kg. Blood samples were collected at predetermined sampling times (except for the first sampling time, i.e. 5 minutes after dosing for the IV group and 10 minutes for the oral group, the sampling times were 0.5,1, 3, 5, 7, 12 and 24 h after dosing) by bleeding the tip of the tail, and analysed using a validated LC-MS/MS assay. Back-calculated concentrations of the blood samples were obtained from a standard regression curve with nine concentration levels (3.910 to 1000 ng/ml). Concentration vs. time profiles were constructed and the data analysed with Summit PK software to obtain the pharmacokinetic parameters.

[2] = stock solution stability in methanol; format: physicochemical; settings: for stock solution stability in methanol, % Reference (peak area vs fresh): 100.0 μg/ml in methanol, eight days, n = 6; for stability in methanol (in words): at room temperature, 5°C, and -20°C
Description: The stability of TK900D and TK900E in methanol was evaluated at room temperature, ~ 5°C and ~ -20°C. Stock solutions with concentrations of 100.0 μg/ml of TK900D and the internal standard were prepared in methanol. Three aliquots of each of the stock solutions were kept at room temperature, ~ 5 °C, and ~ –20°C, respectively, for eight days. After diluting the stored stock solutions in injection solvent to a 100.0 ng/ml, the stability of TK900D and that of the internal standard were assessed by comparing the peak areas obtained from the stored stock solutions with peak areas of the freshly prepared stock solutions. For stock solution results to be acceptable the percentage reference value should not exceed 15%.

[3] = on-instrument stability (OIS) of extracted samples; format: physicochemical; settings: for on-instrument stability (in words): ~ 8.2 h on-instrument; for OIS (on-instrument stability), % Bias: extracted samples on instrument, n = 6
Description: In order to assess the stability of the analytes while awaiting injection on instrument, on-instrument stability (OIS) was assessed for the period of time that the extracted samples were expected to stay on-instrument during the batch run-time (~ 9 h). Quality control samples at high and low concentrations (800.0 ng/ml and 10.01 ng/ml, respectively), were extracted in replicates of six and injected at the beginning and end of the run (i.e. six QC-high and six QC-low at the beginning of the run and another set of six QC-high and QC-low at the end of the run bracketed with quality control samples). The mean measured concentration of the OIS-samples (injected at the end of the run) and OIS-reference samples (injected at the beginning of the run) were compared: in order to be acceptable, their percentage difference should be within ± 15%.

[4] = test system: P. falciparum CQ-sensitive (3D7) strain; parameters: method as in PMID 24900630; settings: read-out: in vitro antiplasmodial activity IC50; cited from earlier work
[5] = test system: P. falciparum CQ-resistant (K1) strain; parameters: method as in PMID 24900630; settings: read-out: in vitro antiplasmodial activity IC50; cited from earlier work
[6] = test system: P. falciparum CQ-resistant (W2) strain; parameters: method as in PMID 24900630; settings: read-out: in vitro antiplasmodial activity IC50; cited from earlier work
[7] = long-term stability in human whole blood; format: in vitro ADME; settings: for Long term stability, % Bias from nominal: human whole blood, ~ -80°C, 181 days, n = 6
Description: For the determination of long-term stability in human whole blood, TK900D spiked quality control samples at 800.0 ng/ml and 10.01 ng/ml were stored at ~ -80°C for 181 days (long enough to cover the time period elapsed from the first day of sample collection to the final sample analysis). These samples were thawed on the day of testing and run together with freshly prepared calibration standards and quality controls and the values were calculated from the resulting calibration curve obtained from the calibration standards.

[8] = freeze and thaw stability in blood; format: in vitro ADME, human; settings: for Freeze and thaw stability, % Bias from nominal: blood, three freeze-thaw cycles from ~ -80°C, n = 6
Description: Quality control blood samples at high and low concentration, 800.0 and 10.01 ng/ml respectively, of TK900D stored frozen at ~ -80°C were allowed to thaw completely unassisted at room temperature and then refrozen for 12 to 24 hours. After three such freeze-thaw cycles the samples were assayed in the third validation run and the measured concentrations were compared with the nominal concentrations of these samples.

[9] = short-term (on-bench) stability in blood; format: in vitro ADME, human; settings: for On bench stability, % Bias from nominal: blood, room temperature on bench, n = 6
Description: […] The samples were assayed in one of the validation batches. The measured concentrations were compared with the nominal concentrations of these samples.

CHO mammalian cell line = test system: CHO mammalian cell line; parameters: method as in PMID 24900630; settings: MTT assay, read-out: cytotoxicity IC50; cited from earlier work
[10] = other: oral and intravenous, over all oral and IV dose groups
[11] = as summarised in abstract (matches oral 40 and 20 mg/kg groups)

CC(C)(C)n1nnnc1C(NCCNc1ccnc2cc(Cl)ccc12)c1ccc(Cl)cc1 (stereo not drawn) [TK900E]
Blood CL total ([1]; IV 2.5 mg/kg): 51.2 mL/min/kg
Vd ([1]; IV 2.5 mg/kg): 7.0 L/kg
Vss ([1]; IV 2.5 mg/kg): 6.5 L/kg
AUC 0 - ∞ ([1]; IV 2.5 mg/kg): 107 µmol·min/L
Apparent t 1/2 ([1]; IV 2.5 mg/kg): 1.6 h
Blood CL total ([1]; IV 5.0 mg/kg): 51.0 mL/min/kg
Vd ([1]; IV 5.0 mg/kg): 10.3 L/kg
Vss ([1]; IV 5.0 mg/kg): 12.6 L/kg
AUC 0 - ∞ ([1]; IV 5.0 mg/kg): 221 µmol·min/L
Apparent t 1/2 ([1]; IV 5.0 mg/kg): 2.5 h
T max ([1]; oral 20 mg/kg): 0.8 h
Bioavailability ([1]; oral 20 mg/kg vs IV 2.5 mg/kg): 25.9%
AUC 0 - ∞ ([1]; oral 20 mg/kg): 222 µmol·min/L
Cmax ([1]; oral 20 mg/kg): 940 nM
Apparent t 1/2 ([1]; oral 20 mg/kg): 3.6 h
T max ([1]; oral 40 mg/kg): 1.0 h
Bioavailability ([1]; oral 40 mg/kg vs IV 5 mg/kg): 30.6%
AUC 0 - ∞ ([1]; oral 40 mg/kg): 541 µmol·min/L
Cmax ([1]; oral 40 mg/kg): 2810 nM
Apparent t 1/2 ([1]; oral 40 mg/kg): 4.0 h
half-life [1, 10]: 1.6 to 4 h
half-life [1, 11]: 3.6 to 4 h
stock solution stability in methanol, % Reference (peak area vs fresh) ([2]; room temperature): 102.8%
stock solution stability in methanol, % Reference (peak area vs fresh) ([2]; ~ 5°C): 103.5%
stock solution stability in methanol, % Reference (peak area vs fresh) ([2]; ~ -20°C): 98.2%
stability in methanol (in words) [2]: stable
on-instrument stability (in words) [3]: stable
IC50 [4]: 2 nM
IC50 [5]: 1 nM
IC50 [6]: 25.5 nM

CCN(CC)CCCC(C)Nc1ccnc2cc(Cl)ccc12 (stereo not drawn) [CQ, Chloroquine, reference compound]
IC50 [4]: 0.2 nM
IC50 [5]: 36 nM
IC50 [6]: 59.1 nM

CC(C)(C)n1nnnc1C(NCCNc1ccnc2cc(Cl)ccc12)c1ccc(Cl)c(Cl)c1 (stereo not drawn) [TK900D]
Blood CL total ([1]; IV 2.5 mg/kg): 48.9 mL/min/kg
Vd ([1]; IV 2.5 mg/kg): 7.9 L/kg
Vss ([1]; IV 2.5 mg/kg): 8.7 L/kg
AUC 0 - ∞ ([1]; IV 2.5 mg/kg): 104 µmol·min/L
Apparent t 1/2 ([1]; IV 2.5 mg/kg): 1.9 h
Blood CL total ([1]; IV 5.0 mg/kg): 44.8 mL/min/kg
Vd ([1]; IV 5.0 mg/kg): 8.9 L/kg
Vss ([1]; IV 5.0 mg/kg): 9.1 L/kg
AUC 0 - ∞ ([1]; IV 5.0 mg/kg): 222 µmol·min/L
Apparent t 1/2 ([1]; IV 5.0 mg/kg): 2.3 h
T max ([1]; oral 20 mg/kg): 1.4 h
Bioavailability ([1]; oral 20 mg/kg vs IV 2.5 mg/kg): 30.8%
AUC 0 - ∞ ([1]; oral 20 mg/kg): 256 µmol·min/L
Cmax ([1]; oral 20 mg/kg): 540 nM
Apparent t 1/2 ([1]; oral 20 mg/kg): 6.0 h
T max ([1]; oral 40 mg/kg): 1.4 h
Bioavailability ([1]; oral 40 mg/kg vs IV 5 mg/kg): 16.2%
AUC 0 - ∞ ([1]; oral 40 mg/kg): 287 µmol·min/L
Cmax ([1]; oral 40 mg/kg): 790 nM
Apparent t 1/2 ([1]; oral 40 mg/kg): 3.9 h
half-life [1, 10]: 2 to 6 h
half-life [1, 11]: 4 to 6 h
stock solution stability in methanol, % Reference (peak area vs fresh) ([2]; room temperature): 106.9%
stock solution stability in methanol, % Reference (peak area vs fresh) ([2]; ~ 5°C): 105.2%
stock solution stability in methanol, % Reference (peak area vs fresh) ([2]; ~ -20°C): 100.3%
stability in methanol (in words) [2]: stable
stability in human whole blood (in words) ([7]; 181 days stored at -80°C): stable
Long term stability, % Bias from nominal ([7]; High (800.0 ng/ml)): 0.7%
Long term stability, % Bias from nominal ([7]; Low (10.01 ng/ml)): -4.0%
freeze-thaw stability (in words) ([8]; at least three freeze-thaw cycles): stable
Freeze and thaw stability, % Bias from nominal ([8]; High (800.0 ng/ml)): 6.6%
Freeze and thaw stability, % Bias from nominal ([8]; Low (10.01 ng/ml)): 8.6%
On bench stability, % Bias from nominal ([9]; High (800.0 ng/ml)): 8.3%
On bench stability, % Bias from nominal ([9]; Low (10.01 ng/ml)): 5.2%
on-bench stability (in words) ([9]; ~ 12 h on-bench at room temperature): stable
OIS (on-instrument stability), % Bias ([3]; High (800.0 ng/ml)): 0.9%
OIS (on-instrument stability), % Bias ([3]; Low (10.01 ng/ml)): 4.5%
on-instrument stability (in words) [3]: stable
IC50 [4]: 0.4 nM
IC50 [5]: 8.2 nM
IC50 [6]: 30.5 nM
IC50 (CHO mammalian cell line): 10500 nM
